Reference: ChEMBL document CHEMBL3044788, “α-(Substituted-phenoxyacetoxy)-α-heterocyclylmethylphosphonates: synthesis, herbicidal activity, inhibition on pyruvate dehydrogenase complex (PDHc), and application as postemergent herbicide against broadleaf weeds” (J Agric Food Chem, 2013)
Values joined by “and” are separate entries in the source; they are usually repeats but may differ in a detail not shown here. Equal entries are not always repeated.

Columns and labels:
[1] = tested on: Amaranthus retroflexus; experiment: Herbicidal activity against 2 to 3 leaf stage Amaranthus retroflexus assessed as inhibition of plant growth at 450 g/ha in greenhouse by postemergence herbicidal activity assay; type: functional; settings: post-emergence, read-out: GI
[2] = tested on: Pisum sativum; experiment: Herbicidal activity against 2 to 3 leaf stage Pisum sativum assessed as inhibition of plant growth at 450 g/ha in greenhouse by postemergence herbicidal activity assay; type: functional; settings: Lathyrus oleraceus, post-emergence; read-out: GI
[3] = tested on: Abutilon theophrasti; experiment: Herbicidal activity against two to three-leaf stage Abutilon theophrasti (velvetleaf) assessed as inhibition of plant growth at 450 g/ha in greenhouse by post-emergence herbicidal activity assay; type: functional; settings: read-out: GI
[4] = Inhibition of Oryza sativa (rice) PDHc by spectrophotometric assay
[5] = tested on: Brassica juncea; experiment: Herbicidal activity against two to three-leaf stage Brassica juncea assessed as inhibition of plant growth at 450 g/ha in greenhouse by post-emergence herbicidal activity assay; type: functional; settings: read-out: GI
[6] = tested on: Echinochloa crus-galli; experiment: Herbicidal activity against 2 to 3 leaf stage Echinochloa crus-galli (barnyard grass) assessed as inhibition of plant growth at 450 g/ha in greenhouse by postemergence herbicidal activity assay; type: functional; settings: for inhibition of growth at 450 g/ha: Echinochloa crus-galli, post-emergence, read-out: GI
[7] = tested on: Brassica rapa subsp. oleifera; experiment: Herbicidal activity against Brassica rapa subsp. oleifera assessed as inhibition of rape root growth at 450 g/ha by pre-emergence herbicidal activity assay; type: functional; settings: read-out: GI
[8] = tested on: Brassica rapa subsp. oleifera; experiment: Herbicidal activity against two to three-leaf stage Brassica rapa subsp. oleifera assessed as inhibition of plant growth at 450 g/ha in greenhouse by postemergence herbicidal activity assay; type: functional; settings: post-emergence, read-out: GI
[9] = tested on: Abutilon theophrasti; experiment: Herbicidal activity against two to three-leaf stage Abutilon theophrasti (velvetleaf) assessed as inhibition of plant growth at 150 g/ha in greenhouse by post-emergence herbicidal activity assay; type: functional; settings: read-out: GI
[10] = tested on: Amaranthus retroflexus; experiment: Herbicidal activity against 2 to 3 leaf stage Amaranthus retroflexus assessed as inhibition of plant growth at 150 g/ha in greenhouse by postemergence herbicidal activity assay; type: functional; settings: post-emergence, read-out: GI
[11] = tested on: Brassica rapa subsp. oleifera; experiment: Herbicidal activity against Brassica rapa subsp. oleifera assessed as inhibition of rape root growth at 450 g/ha by postemergence herbicidal activity assay; type: functional; settings: post-emergence, read-out: GI
[12] = tested on: Oryza sativa; experiment: Herbicidal activity against two to three-leaf stage Oryza sativa (rice) assessed as inhibition of plant growth at 450 g/ha in greenhouse by postemergence herbicidal activity assay; type: organism-based; settings: in vivo, other
[13] = tested on: Brassica rapa subsp. oleifera; experiment: Herbicidal activity against Brassica rapa subsp. oleifera assessed as inhibition of rape root growth; type: functional, organism-based
[14] = tested on: Eclipta prostrata; experiment: Herbicidal activity against two to three-leaf stage Eclipta prostrata assessed as inhibition of plant growth at 150 g/ha in greenhouse by post-emergence herbicidal activity assay; type: functional; settings: read-out: GI
[15] = tested on: Brassica rapa subsp. oleifera; experiment: Herbicidal activity against two to three-leaf stage Brassica rapa subsp. oleifera assessed as inhibition of plant growth at 150 g/ha in greenhouse by postemergence herbicidal activity assay; type: functional; settings: post-emergence, read-out: GI
[16] = tested on: Eclipta prostrata; experiment: Herbicidal activity against two to three-leaf stage Eclipta prostrata assessed as inhibition of plant growth at 450 g/ha in greenhouse by post-emergence herbicidal activity assay; type: functional; settings: read-out: GI
[17] = molecular target: T1, Pyruvate dehydrogenase complex (Pisum sativum, UniProt P52902+P52904); experiment: Inhibition of Pisum sativum (pea) PDHc by spectrophotometric assay; type: protein-complex assay, Lathyrus oleraceus
T1 sequence (P52902 whole entry): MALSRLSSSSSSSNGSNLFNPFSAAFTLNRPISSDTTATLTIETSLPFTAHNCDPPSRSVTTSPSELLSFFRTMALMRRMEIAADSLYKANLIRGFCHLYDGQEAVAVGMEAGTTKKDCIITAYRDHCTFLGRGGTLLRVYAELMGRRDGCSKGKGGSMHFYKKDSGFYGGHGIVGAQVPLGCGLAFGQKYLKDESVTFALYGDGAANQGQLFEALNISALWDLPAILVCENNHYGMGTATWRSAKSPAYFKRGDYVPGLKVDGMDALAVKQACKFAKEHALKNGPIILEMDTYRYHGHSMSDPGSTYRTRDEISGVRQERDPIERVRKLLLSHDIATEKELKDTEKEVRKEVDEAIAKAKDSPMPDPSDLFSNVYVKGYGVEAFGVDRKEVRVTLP
T1 sequence (P52904 whole entry): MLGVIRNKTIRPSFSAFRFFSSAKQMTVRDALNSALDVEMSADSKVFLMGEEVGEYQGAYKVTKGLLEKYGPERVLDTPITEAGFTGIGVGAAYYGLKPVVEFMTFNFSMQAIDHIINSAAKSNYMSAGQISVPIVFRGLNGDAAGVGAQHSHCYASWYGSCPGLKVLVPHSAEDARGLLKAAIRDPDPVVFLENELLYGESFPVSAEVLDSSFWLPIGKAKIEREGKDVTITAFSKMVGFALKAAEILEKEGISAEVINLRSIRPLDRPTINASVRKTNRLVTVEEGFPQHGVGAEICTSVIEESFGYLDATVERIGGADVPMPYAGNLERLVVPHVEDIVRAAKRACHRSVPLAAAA

Compound | inhibition of growth at 450 g/ha [1] | inhibition of growth at 450 g/ha [2] | inhibition of growth at 450 g/ha [3] | IC50 [4] | inhibition of growth at 450 g/ha [5] | growth inhibition (GI) [6] | inhibition of growth at 450 g/ha [7] | inhibition of growth at 450 g/ha [8] | inhibition of growth at 150 g/ha [9] | inhibition of growth at 150 g/ha [10] | inhibition of growth at 450 g/ha [11] | growth inhibition (GI) [12] | IC50 [13] | inhibition of growth at 150 g/ha [14] | inhibition of growth at 150 g/ha [15] | inhibition of growth at 450 g/ha [16] | inhibition of growth at 450 g/ha [6] | IC50 [17]
COP(=O)(OC)C(C)OC(=O)COc1ccc(Cl)cc1Cl (stereo not given) [CLACYFOS] | 100% | 97.5% | 100% | 867 µM | 100% | 35% and 100% | 96% | 100% | 95% | 91% | 98% | 0% | 0.0344 µM | 90% | 92% | 0% |  | 
COP(=O)([O-])C(C)OC(=O)COc1ccc(Cl)cc1Cl.[Na+] (stereo not given) | 98% | 71.5% |  | 0.29 µM | 100% |  |  |  |  |  |  | 27% |  |  |  |  | 50% | 
COP(=O)(OC)C(O)c1ccco1 (stereo not given) |  |  |  |  |  |  | 25% |  |  |  | 20% |  | > 4670 µM |  |  |  |  | 
COP(=O)(OC)C(OC(=O)COc1cccc(C(F)(F)F)c1)c1ccccn1 (stereo not given) | 77.5% | 0% |  |  | 60% |  |  |  |  |  |  | 0% |  |  |  |  | 0% | > 2300 µM
COP(=O)(O)C(O)c1ccco1 (stereo not given) | 0% | 0% |  |  |  |  | 23% |  |  |  | 20% |  | > 4670 µM |  |  |  | 17.5% | > 4670 µM
COP(=O)(OC)C(C)O (stereo not given) [DIMETHYL 1-HYDROXYETHYLPHOSPHONATE] |  |  |  |  |  |  | 36% |  |  |  | 30% |  | 2400 µM |  |  |  |  | 
COP(=O)(OC)C(=O)c1ccco1 |  |  |  |  |  |  | 56% |  |  |  | 50% |  | 237 µM |  |  |  |  | 
COP(=O)(O)C(C)=O [SODIUM METHYL ACETYLPHOSPHONATE] |  |  |  |  |  |  |  |  |  |  |  |  |  |  |  |  |  | 70 µM
COP(=O)(OC)C(C)=O [DIMETHYL ACETYLPHOSPHONATE] |  |  |  |  |  |  | 34% |  |  |  | 45% |  | 1880 µM |  |  |  |  | 
COP(=O)(OC)C(OC(=O)COc1ccc(C#N)cc1)c1cccs1 (stereo not given) | 40% |  | 40% |  |  |  |  | 40% | 30% | 40% |  |  |  | 0% | 30% | 60% |  | 
CCC(OC(=O)COc1ccc(Cl)cc1Cl)P(=O)([O-])OC.[Na+] (stereo not given) | 97% | 90% |  | 18.9 µM | 94.5% |  |  |  |  |  |  | 27% |  |  |  |  | 30% | 
O=C(O)COc1ccc(Cl)cc1Cl [2,4-DICHLOROPHENOXYACETIC ACID] | 100% | 97.5% |  |  | 100% |  | 98% |  | 93% | 92% | 90% |  | 0.0556 µM | 90% | 92.5% |  | 35% | > 4530 µM
COP(=O)(OC)C(OC(=O)COc1cccc(C)c1C)c1cccs1 (stereo not given) | 40% |  | 0% |  |  |  |  | 0% | 0% | 40% |  |  |  | 0% | 0% | 70% |  | 
COP(=O)(OC)C(OC(=O)COc1ccc(F)cc1F)c1cccs1 (stereo not given) | 70% |  | 75% |  |  |  |  | 80% | 60% | 60% |  |  |  | 60% | 70% | 70% |  | 
CCCC(OC(=O)COc1ccc(Cl)cc1Cl)P(=O)([O-])OC.[Na+] (stereo not given) | 97% | 77.5% |  | 3.26 µM | 96% |  |  |  |  |  |  | 22% |  |  |  |  | 45% | 
COP(=O)(OC)C(OC(=O)COc1cc(Cl)c(Cl)cc1Cl)c1cccs1 (stereo not given) | 90% |  | 85% |  |  |  |  | 95% | 80% | 80% |  |  |  | 80% | 80% | 50% |  | 
COP(=O)([O-])C(OC(=O)COc1ccc(Cl)cc1Cl)c1ccco1.[Na+] (stereo not given) | 100% | 98% |  | 41.1 µM | 92.5% |  | 96% |  |  |  | 95% | 45% | 0.0396 µM |  |  |  | 50% | 6.96 µM
COP(=O)(O)C(=O)c1ccco1 | 25% | 35% |  |  |  |  | 20% |  |  |  | 30% |  | 3240 µM |  |  |  | 25% | 389 µM
COP(=O)(OC)C(OC(=O)COc1ccc(F)cc1Cl)c1cccs1 (stereo not given) | 100% |  | 90% |  |  |  |  | 95% | 70% | 90% |  |  |  | 80% | 75% | 85% |  | 
COP(=O)([O-])COC(=O)COc1ccc(Cl)cc1Cl.[Na+] | 92% | 52.5% |  | 29.1 µM | 93% |  |  |  |  |  |  | 12% |  |  |  |  | 10% | 
